Reference: article PMC8641298 (ACS infectious diseases, 2020)

Columns and labels:
[1] = HEK293 cytotoxicity; type: cell-based; conditions: human
[2] = system: acetylated α-tubulin in HEK293 cells; assay: HEK293 MT-stabilization assay; type: cell-based; conditions: 4 h
[3] = system: S. mansoni somules; assay: In vitro phenotypic screen of S. mansoni somules; type: cell-based, Schistosoma mansoni
[4] = system: S. mansoni adults; assay: In vitro phenotypic screen of S. mansoni adults; type: cell-based, Schistosoma mansoni; conditions: for Phenotypic descriptors, adults 5 h / Phenotypic descriptors, adults 24 h / Phenotypic descriptors, adults 48 h: assays performed at 10 μM (footnote d)
[5] = system: adult S. mansoni; assay: WormAssay, average adult worm motility; type: cell-based, Schistosoma mansoni; conditions: 5 h; for WormAssay (average adult worm movement ± SD): DMSO control 104.1 ± 24.4; for EC50: Schistosoma mansoni, read-out: EC50 of paralysis measured by WormAssay
[6] = HeLa cytotoxicity; type: cell-based; conditions: human, HeLa cells
[7] = HEK293 cells (method text: HEK 293T)
[8] = assays performed at 10 μM (footnote d)

SMILES	CC50 at 48 h [1]	Fold-change in acetylated α-tubulin ([2]; 1 μM)	Phenotypic descriptors, somules (1 μM) 24 h [3]	Phenotypic descriptors, somules (1 μM) 48 h [3]	Phenotypic descriptors, somules (10 μM) 24 h [3]	Phenotypic descriptors, somules (10 μM) 48 h [3]	Phenotypic descriptors, adults (5 μM) 5 h [4]	Phenotypic descriptors, adults (5 μM) 24 h [4]	Phenotypic descriptors, adults (5 μM) 48 h [4]	WormAssay (average adult worm movement ± SD) ([5]; 5 μM)	CC50 at 48 h [1, 7]	CC50 at 48 h [6]	Phenotypic descriptors, adults 5 h [4]	Phenotypic descriptors, adults 24 h [4]	Phenotypic descriptors, adults 48 h [4]	WormAssay (average adult worm movement ± SD) [5, 8]	Fold-change in acetylated α-tubulin ([2]; 10 μM)	EC50 [5]
CNCCCOc1cc(F)c(-c2c(Cl)nc3ncnn3c2N[C@@H](C)C(F)(F)F)c(F)c1 [Compound 12, cevipabulin, reference compound]	28 nM	–	–	–	–	–	–	–	–	–	–	–	–	–	–	–	–	–
C[C@H](Nc1nc(-c2ccc3ccccc3n2)nc(Cl)c1-c1c(F)cc(F)cc1F)C(F)(F)F [Compound 21, (S)-6-chloro-2-(quinolin-2-yl)-5-(2,4,6-trifluorophenyl)-N-(1,1,1-trifluoropropan-2-yl)pyrimidin-4-amine]	–	1.95 ± 0.2 (1 μM) fold	N	N	R, deg	R, deg	N	N	S, on sides	75.3 ± 18.9	–	–	–	–	–	–	–	–
CC1(CNc2nc(-c3cnccn3)nc(Cl)c2-c2c(F)cc(F)cc2F)N=N1 [Compound 22, 6-chloro-N-((3-methyl-3H-diazirin-3-yl)methyl)-2-(pyrazin-2-yl)-5-(2,4,6-trifluorophenyl)-pyrimidin-4-amine]	–	2.68 ± 0.04 (1 μM) fold	R, deg	R, deg	R, deg	R, deg	N	N	Unc	131.4 ± 27.4	50 ± 10 nM	40 ± 12 nM	–	–	–	–	–	–
C[C@H](Nc1nc(-c2nccs2)nc(Cl)c1-c1c(F)cc(F)cc1F)C(F)(F)F [Compound 23, (S)-6-chloro-2-(thiazol-2-yl)-5-(2,4,6-trifluorophenyl)-N-(1,1,1-trifluoropropan-2-yl)pyrimidin-4-amine]	–	–	Deg, unc	Deg, unc	Deg, unc	Deg, unc	–	–	–	–	8 ± 2 nM	6 ± 1 nM	Unc, dark^d	Unc, dark^d	Unc, dark^d	62.1 ± 26.4^d	–	–
C[C@H](Nc1nc(-c2ccco2)nc(Cl)c1-c1c(F)cc(F)cc1F)C(F)(F)F [Compound 24, (S)-6-chloro-2-(furan-2-yl)-5-(2,4,6-trifluorophenyl)-N-(1,1,1-trifluoropropan-2-yl)pyrimidin-4-amine]	–	–	N	N	N	Deg, unc	–	–	–	–	–	–	S^d	Unc, on sides^d	S, dark, on sides^d	56.0 ± 21.5^d	2.7 ± 0.2 (10 μM) fold	–
C[C@H](Nc1nc(-c2cccs2)nc(Cl)c1-c1c(F)cc(F)cc1F)C(F)(F)F [Compound 25, (S)-6-chloro-2-(thiophen-2-yl)-5-(2,4,6-trifluorophenyl)-N-(1,1,1-trifluoropropan-2-yl)pyrimidin-4-amine]	–	–	R, S	R, S	rounding and immobility and R, I	R, I,	I, on sides	I, on sides	I, on sides	5.5 ± 9.8	1270 ± 106 nM	1660 ± 612 nM	–	–	–	–	3.0 ± 0.6 (10 μM) fold	~1000 nM
C[C@@H](Nc1nc(-c2cccs2)nc(Cl)c1-c1c(F)cc(F)cc1F)C(F)(F)F [Compound 27, (R)-6-chloro-2-(thiophen-2-yl)-5-(2,4,6-trifluorophenyl)-N-(1,1,1-trifluoropropan-2-yl)pyrimidin-4-amine]	–	–	R, S	R	R, I	R, I	I, on sides	I, on sides	I, on sides	6.3 ± 9.3	29400 nM	27700 ± 10400 nM	–	–	–	–	–	–
CC(C)[C@@H](C)Nc1nc(-c2cccs2)nc(Cl)c1-c1c(F)cc(F)cc1F [Compound 28, (R)-6-chloro-N-(3-methylbutan-2-yl)-2-(thiophen-2-yl)-5-(2,4,6-trifluorophenyl)pyrimidin-4-amine]	–	–	R, I	R, I	R, I	R, I	I, on sides	I, on sides	I, on sides	2.9 ± 8.8	26800 nM	17400 ± 2000 nM	–	–	–	–	–	~1000 nM
CC(C)[C@H](C)Nc1nc(-c2cccs2)nc(Cl)c1-c1c(F)cc(F)cc1F [Compound 29, (S)-6-chloro-N-(3-methylbutan-2-yl)-2-(thiophen-2-yl)-5-(2,4,6-trifluorophenyl)pyrimidin-4-amine]	–	–	R, S	R, S	R, I	R, I	I, on sides	I, on sides	I, on sides	5.0 ± 11.5	29100 nM	8780 ± 1390 nM	–	–	–	–	–	~1000 nM
CC1(CNc2nc(-c3cccs3)nc(Cl)c2-c2c(F)cc(F)cc2F)N=N1 [Compound 30, 6-chloro-N-((3-methyl-3H-diazirin-3-yl)methyl)-2-(thiophen-2-yl)-5-(2,4,6-trifluorophenyl)-pyrimidin-4-amine]	–	–	S	S, R	R, I	R, I	S, on sides	S, on sides	S, on sides	12.9 ± 18.1	1270 ± 35 nM	3890 ± 1860 nM	–	–	–	–	–	–
C[C@H](Nc1cc(Cl)nc(-c2cccs2)n1)C(F)(F)F [Compound 31, (S)-6-chloro-2-(thiophen-2-yl)-N-(1,1,1-trifluoropropan-2-yl)pyrimidin-4-amine]	–	–	R, unc	N	R, unc	N	N	N	N	89.0 ± 18.6	–	–	–	–	–	–	–	–
Fc1cc(F)c(-c2cnc(-c3cccs3)nc2Cl)c(F)c1 [Compound 32, 4-chloro-2-(thiophen-2-yl)-5-(2,4,6-trifluorophenyl)pyrimidine]	–	–	N	N	R, S	N	N	N	N	78.0 ± 20.1	–	–	–	–	–	–	–	–
O=C(C1CCCCC1)N1CC(=O)N2CCc3ccccc3C2C1 (stereo not drawn) [PZQ, praziquantel, reference compound]	–	–	–	–	–	–	–	–	–	1.8 ± 5.1	–	–	–	–	–	–	–	–
